Laboratory results taken from ChEMBL document CHEMBL4229511, “Synthesis and biological activity investigation of azole and quinone hybridized phosphonates” (Bioorg Med Chem Lett, 2018).
Converted amounts (≈) assume the structure as drawn.

Tests used:
Staphylococcus aureus [1] = assay: Antibacterial activity against Staphylococcus aureus ATCC 33591 after 18 hrs; type: functional; conditions: ATCC 33591, 18 h
Candida albicans [2] = assay: Antifungal activity against Candida albicans ATCC 64124 by CLSI […] protocol based method; type: functional
Staphylococcus aureus [3] = assay: Antibacterial activity against Staphylococcus aureus ATCC 43300 after 18 hrs; type: functional; conditions: ATCC 43300, 18 h
Rhodotorula mucilaginosa = assay: Antifungal activity against Rhodotorula pilimanae by CLSI […] protocol based method; type: functional
Fusarium graminearum = assay: Antifungal activity against Fusarium graminearum by CLSI […] protocol based method; type: functional
Staphylococcus aureus [4] = assay: Antibacterial activity against Staphylococcus aureus ATCC 25923 after 18 hrs; type: functional; conditions: ATCC 25923, 18 h
Escherichia coli = assay: Antibacterial activity against Escherichia coli ATCC 25922 after 18 hrs; type: functional; conditions: ATCC 25922, 18 h
Aspergillus flavus = assay: Antifungal activity against Aspergillus flavus by CLSI […] protocol based method; type: functional
Cryptococcus neoformans = assay: Antifungal activity against Cryptococcus neoformans H99 by CLSI […] protocol based method; type: functional; conditions: var grubii H99
HeLa [5] = assay: Cytotoxicity against human HeLa cells after 24 hrs by MTT assay; type: cell-based
Candida albicans [6] = assay: Antifungal activity against Candida albicans MYA2876 by CLSI […] protocol based method; type: functional
HeLa [7] = assay: Cytotoxicity against human HeLa cells up to 10 ug/ml after 24 hrs by MTT assay; type: cell-based

SMILES | MIC (Staphylococcus aureus [1]) [µg/mL] | MIC (Candida albicans [2]) [µg/mL] | MIC (Staphylococcus aureus [3]) [µg/mL] | MIC (Rhodotorula mucilaginosa) [µg/mL] | MIC (Fusarium graminearum) [µg/mL] | MIC (Staphylococcus aureus [4]) [µg/mL] | MIC (Escherichia coli) [µg/mL] | MIC (Aspergillus flavus) [µg/mL] | MIC (Cryptococcus neoformans) [µg/mL] | IC50 (HeLa [5]) [µg/mL] | MIC (Candida albicans [6]) [µg/mL] | Activity (HeLa [7])
CCOP(=O)(CCCCn1nnc2c1C(=O)c1ccccc1C2=O)OCC | 128 (≈ 327 µM) | > 128 | 64 to 128 (≈ 164 to 327 µM) | 128 (≈ 327 µM) | 8 (≈ 20.4 µM) | 128 (≈ 327 µM) | > 128 | > 128 | 32 (≈ 81.8 µM) | 9.11 (≈ 23.3 µM) | > 128 | 
O=C1c2ccccc2C(=O)c2c1nnn2CCCCCCP(=O)([O-])[O-].[K+].[K+] | 64 | 32 to 64 | 64 | 128 | 64 | 32 to 64 | > 256 | 64 | 64 | 73.6 | 32 to 64 | Non-Toxic
CCOP(=O)(CCCCCCCCn1nnc2c1C(=O)c1ccccc1C2=O)OCC | 32 (≈ 71.5 µM) | > 128 | 16 to 32 (≈ 35.8 to 71.5 µM) | > 128 | 1 to 2 (≈ 2.23 to 4.47 µM) | 64 (≈ 143 µM) | > 128 | > 128 | > 128 | 52 (≈ 116 µM) | > 128 | Non-Toxic
CCOP(=O)(CCn1nnc2c1C(=O)c1ccccc1C2=O)OCC | 64 (≈ 176 µM) | > 128 | 64 (≈ 176 µM) | 64 to 128 (≈ 176 to 352 µM) | 16 (≈ 44 µM) | 64 (≈ 176 µM) | > 128 | 64 to 128 (≈ 176 to 352 µM) | 16 (≈ 44 µM) | 13.8 (≈ 38.1 µM) | > 128 | 
O=C1c2ccccc2C(=O)c2c1nnn2CCCP(=O)([O-])[O-].[K+].[K+] | 128 | 32 | 64 to 128 | 32 | 32 | 32 | > 256 | 16 to 32 | 32 | 88 | 32 | Non-Toxic
CCCCCCCCS(=O)(=O)OC[C@H]1O[C@H](O[C@@H]2[C@@H](O)[C@H](O[C@H]3O[C@H](CN)[C@@H](O)[C@H](O)[C@H]3O)[C@@H](N)C[C@H]2N)[C@H](O)[C@@H](N)[C@@H]1O |  | 256 (≈ 387 µM) |  | 4 (≈ 6.05 µM) | 32 (≈ 48.4 µM) |  |  | > 256 | 4 (≈ 6.05 µM) |  | 64 (≈ 96.9 µM) | 
CCOP(=O)(CCCn1nnc2c1C(=O)c1ccccc1C2=O)OCC | 64 (≈ 170 µM) | > 128 | 64 to 128 (≈ 170 to 339 µM) | 64 to 128 (≈ 170 to 339 µM) | 16 (≈ 42.4 µM) | 64 (≈ 170 µM) | > 128 | 64 to 128 (≈ 170 to 339 µM) | 16 (≈ 42.4 µM) | 6.97 (≈ 18.5 µM) | > 128 | 
C[C@@H](c1ncncc1F)[C@](O)(Cn1cncn1)c1ccc(F)cc1F [VORICONAZOLE] |  | > 256 |  | 8 (≈ 22.9 µM) | 32 (≈ 91.6 µM) |  |  | 1 (≈ 2.86 µM) | 0.125 (≈ 0.358 µM) |  | 0.125 (≈ 0.358 µM) | 
CCOP(=O)(CCCCCCn1nnc2c1C(=O)c1ccccc1C2=O)OCC | 64 (≈ 153 µM) | > 128 | 32 to 64 (≈ 76.3 to 153 µM) | 64 to 128 (≈ 153 to 305 µM) | 4 (≈ 9.54 µM) | 32 to 64 (≈ 76.3 to 153 µM) | > 128 | > 128 | 32 (≈ 76.3 µM) | 47 (≈ 112 µM) | > 128 | 
O=C1c2ccccc2C(=O)c2c1nnn2CCCCCCCCCCP(=O)([O-])[O-].[K+].[K+] | > 256 | 128 | > 256 | 64 | 32 | 32 to 64 | > 256 |  | 32 | > 100 | 128 | Non-Toxic
CCOP(=O)(CCCCCCCCCCn1nnc2c1C(=O)c1ccccc1C2=O)OCC | 64 (≈ 135 µM) | > 128 | 16 to 64 (≈ 33.6 to 135 µM) | > 128 | 0.5 (≈ 1.05 µM) | > 128 | > 128 |  | > 128 | 65.7 (≈ 138 µM) | > 128 | Non-Toxic
O=C1c2ccccc2C(=O)c2c1nnn2CCCCCCCCP(=O)([O-])[O-].[K+].[K+] | 256 | 16 to 32 | > 256 | > 128 | 32 | 64 | > 256 | 8 to 16 | 32 | 95.3 | 8 to 16 | Non-Toxic
O=C1c2ccccc2C(=O)c2c1nnn2CCP(=O)([O-])[O-].[K+].[K+] | 128 | > 128 | 128 | 128 | 32 | 32 | > 256 | > 128 | 64 | 91.8 | > 128 | Non-Toxic
